Test results reported in patent publication US6706663B2, “Herbicidal 3-heterocyclic substituted benzisothiazole and benzisoxazole compounds” (Wyeth, priority 2000, dated 2004).

Columns and labels:
[1] = tested on: ABUTH (Abutilon theophrasti); assay: Postemergence herbicidal evaluation; assay type: in vivo, Medic.
In short: (§1)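 Seedlings grown about two weeks in flats, sprayed, then kept under standard greenhouse care. Rated visually 4–5 weeks after treatment on a 0–9 scale (stand, vigour, malformation, size, chlorosis, overall appearance) relative to untreated control; repeat tests averaged.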

[2] = tested on: AMBEL (Ambrosia artemisifolia); assay: Postemergence herbicidal evaluation; assay type: in vivo, L.
In short: as §1

[3] = tested on: CASOB (Cassia obtusifolia); assay: Postemergence herbicidal evaluation; assay type: in vivo, L.
In short: as §1

[4] = tested on: CHEAL (Chenopodium album); assay: Postemergence herbicidal evaluation; assay type: in vivo, L.
In short: as §1

GALAP (Galium aparine) [5] = assay: Postemergence herbicidal evaluation; assay type: in vivo
In short: as §1

[6] = tested on: ECHCG (Echinochloa crus-galli); assay: Postemergence herbicidal evaluation; assay type: in vivo, (L.) Beau
In short: as §1

[7] = tested on: GLXMAW (Soybean, Williams); assay: Postemergence herbicidal evaluation; assay type: in vivo, Glycine max, (L.) Merr. cv Williams
In short: as §1

ORYSAT (Rice, Tebonnet) [8] = assay: Postemergence herbicidal evaluation; assay type: in vivo, Oryza sativa, (L.) Tebonnet
In short: as §1

ZEAMX (Corn, Field) = assay: Postemergence herbicidal evaluation; assay type: in vivo, Zea mays, L.
In short: as §1

[9] = tested on: ABUTH (Abutilon theophrasti); assay: Preemergence herbicidal evaluation; assay type: in vivo, Medic.; conditions: preemergence, rated 4-5 weeks after treatment
[10] = tested on: AMBEL (Ambrosia artemisifolia); assay: Preemergence herbicidal evaluation; assay type: in vivo, L.; conditions: preemergence, rated 4-5 weeks after treatment
In short: (§2)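 Seeds planted in potting soil cups and sprayed preemergence with aqueous acetone compound solution. Greenhouse-grown; rated 4–5 weeks after treatment on a 0-9 visual scale (stand, vigor, malformation, size, chlorosis, appearance) versus control.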

[11] = tested on: CASOB (Cassia obtusifolia); assay: Preemergence herbicidal evaluation; assay type: in vivo, L.; conditions: preemergence, rated 4-5 weeks after treatment
In short: as §2

[12] = tested on: CHEAL (Chenopodium album); assay: Preemergence herbicidal evaluation; assay type: in vivo, L.; conditions: preemergence, rated 4-5 weeks after treatment
In short: as §2

GALAP (Galium aparine) [13] = assay: Preemergence herbicidal evaluation; assay type: in vivo; conditions: preemergence, rated 4-5 weeks after treatment
In short: as §2

[14] = tested on: IPOHE (Ipomoea hederacea); assay: Preemergence herbicidal evaluation; assay type: in vivo, (L.) Jacq.; conditions: preemergence, rated 4-5 weeks after treatment
ORYSAT (Rice, Tebonnet) [15] = assay: Preemergence herbicidal evaluation; assay type: in vivo, Oryza sativa, (L.) Tebonnet; conditions: preemergence, rated 4-5 weeks after treatment
[16] = tested on: TRZAWR (Wheat, Winter, cv Riband); assay: Preemergence herbicidal evaluation; assay type: in vivo, Triticum aestivum; conditions: preemergence, rated 4-5 weeks after treatment
In short: as §2

[17] = tested on: CYPSE (Cyperus serotinus); assay: Flooded paddy, preemergence weed control; assay type: in vivo, Rottb.; conditions: rated 3-4 weeks after treatment, 0-9 rating scale
In short: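 Seeds or propagules were planted 0.5 cm deep in silt loam and flooded to 1.5–3 cm. Compounds in 50/50 v/v aqueous/acetone were pipetted into the flood water at about 0.0080 to 0.1250 kg/ha. After 3–4 weeks in the greenhouse, effect was rated visually on a 0–9 scale versus untreated control.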

[18] = tested on: SAGPY (Sagittaria pygmaea); assay: Flooded paddy, preemergence weed control; assay type: in vivo, L.; conditions: rated 3-4 weeks after treatment, 0-9 rating scale
In short: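 Preemergence, flooded: propagules planted at 0.5 cm depth in silt loam, water level maintained at 1.5 to 3 cm over soil, containers kept on greenhouse benches. Activity scored 0-9 by eye relative to a control plant.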

ORYSAT (Rice, Tebonnet) [19] = assay: Flooded paddy, post-transplant rice tolerance; assay type: in vivo, Oryza sativa, (L.) Tebonnet; conditions: flooded paddy, post-transplant rice, rated 3-4 weeks after treatment, 0-9 rating scale
In short: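 Ten-day-old seedlings, 2/pot, silt loam; flood kept 1.5–3 cm over soil; herbicide applied post-transplant; greenhouse; score 0–9 visual vs control.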

With Cn1c(C(F)(F)F)cc(=O)n(-c2ccc3snc(C4OCC(C)(C)CO4)c3c2)c1=O [Compound 36, 3-[3(5,5-dimethyl-m-dioxan-2-yl)-1,2-benzisothiazol-5-yl]-1-methyl-6-(trifluoromethyl)uracil] the “Postemergence herbicidal rating, ABUTH” value ([1]; rate 0.0320 kg/ha) was 9.0, the “Postemergence herbicidal rating, ABUTH” value ([1]; rate 0.0620 kg/ha) was 9.0 and the “Postemergence herbicidal rating, AMBEL” value ([2]; rate 0.0320 kg/ha) was 9.0. For the same compound, the “Postemergence herbicidal rating, AMBEL” value ([2]; rate 0.0620 kg/ha) was 9.0, the “Postemergence herbicidal rating, CASOB” value ([3]; rate 0.0320 kg/ha) was 9.0 and the “Postemergence herbicidal rating, CASOB” value ([3]; rate 0.0620 kg/ha) was 9.0. The “Postemergence herbicidal rating, CHEAL” value ([4]; rate 0.0320 kg/ha) was 7.0, the “Postemergence herbicidal rating, CHEAL” value ([4]; rate 0.0620 kg/ha) was 9.0 and the “Postemergence herbicidal rating, GALAP” value (GALAP (Galium aparine) [5]; rate 0.0320 kg/ha) was 4.0. The “Postemergence herbicidal rating, GALAP” value (GALAP (Galium aparine) [5]; rate 0.0620 kg/ha) was 5.0, the “Postemergence herbicidal rating, ECHCG” value ([6]; rate 0.0320 kg/ha) was 1.0 and the “Postemergence herbicidal rating, ECHCG” value ([6]; rate 0.0620 kg/ha) was 3.0. The “Postemergence herbicidal rating, GLXMAW” value ([7]; rate 0.0320 kg/ha) was 7.5, the “Postemergence herbicidal rating, GLXMAW” value ([7]; rate 0.0620 kg/ha) was 9.0 and the “Postemergence herbicidal rating, ORYSAT” value (ORYSAT (Rice, Tebonnet) [8]; rate 0.0320 kg/ha) was 4.5. The “Postemergence herbicidal rating, ORYSAT” value (ORYSAT (Rice, Tebonnet) [8]; rate 0.0620 kg/ha) was 7.0, the “Postemergence herbicidal rating, ZEAMX” value (ZEAMX (Corn, Field); rate 0.0320 kg/ha) was 5.0 and the “Postemergence herbicidal rating, ZEAMX” value (ZEAMX (Corn, Field); rate 0.0620 kg/ha) was 6.0. The “ABUTH preemergence herbicidal rating” value ([9]; Rate 0.0620 kg/ha) was 9.0, the “ABUTH preemergence herbicidal rating” value ([9]; Rate 0.1250 kg/ha) was 9.0 and the “ABUTH preemergence herbicidal rating” value ([9]; Rate 0.2500 kg/ha) was 9.0. For the same compound, the “AMBEL preemergence herbicidal rating” value ([10]; Rate 0.0620 kg/ha) was 9.0, the “AMBEL preemergence herbicidal rating” value ([10]; Rate 0.1250 kg/ha) was 9.0 and the “AMBEL preemergence herbicidal rating” value ([10]; Rate 0.2500 kg/ha) was 9.0. The “CASOB preemergence herbicidal rating” value ([11]; Rate 0.0620 kg/ha) was 5.0, the “CASOB preemergence herbicidal rating” value ([11]; Rate 0.1250 kg/ha) was 9.0 and the “CASOB preemergence herbicidal rating” value ([11]; Rate 0.2500 kg/ha) was 9.0. The “CHEAL preemergence herbicidal rating” value ([12]; Rate 0.0620 kg/ha) was 9.0, the “CHEAL preemergence herbicidal rating” value ([12]; Rate 0.1250 kg/ha) was 9.0 and the “CHEAL preemergence herbicidal rating” value ([12]; Rate 0.2500 kg/ha) was 9.0. The “GALAP preemergence herbicidal rating” value (GALAP (Galium aparine) [13]; Rate 0.0620 kg/ha) was 5.0, the “GALAP preemergence herbicidal rating” value (GALAP (Galium aparine) [13]; Rate 0.1250 kg/ha) was 9.0 and the “GALAP preemergence herbicidal rating” value (GALAP (Galium aparine) [13]; Rate 0.2500 kg/ha) was 9.0. For the same compound, the “IPOHE preemergence herbicidal rating” value ([14]; Rate 0.0620 kg/ha) was 3.5, the “IPOHE preemergence herbicidal rating” value ([14]; Rate 0.1250 kg/ha) was 6.5 and the “IPOHE preemergence herbicidal rating” value ([14]; Rate 0.2500 kg/ha) was 9.0. The “ORYSAT preemergence herbicidal rating” value (ORYSAT (Rice, Tebonnet) [15]; Rate 0.0620 kg/ha) was 7.5, the “ORYSAT preemergence herbicidal rating” value (ORYSAT (Rice, Tebonnet) [15]; Rate 0.1250 kg/ha) was 9.0 and the “ORYSAT preemergence herbicidal rating” value (ORYSAT (Rice, Tebonnet) [15]; Rate 0.2500 kg/ha) was 9.0. The “TRZAWR preemergence herbicidal rating” value ([16]; Rate 0.0620 kg/ha) was 9.0, the “TRZAWR preemergence herbicidal rating” value ([16]; Rate 0.1250 kg/ha) was 9.0 and the “TRZAWR preemergence herbicidal rating” value ([16]; Rate 0.2500 kg/ha) was 9.0. The “herbicidal rating, CYPSE” value ([17]; rate 0.0320 kg/ha) was 9.0, the “herbicidal rating, CYPSE” value ([17]; rate 0.1250 kg/ha) was 9.0 and the “herbicidal rating, SAGPY” value ([18]; rate 0.0080 kg/ha) was 0.0. For the same compound, the “herbicidal rating, SAGPY” value ([18]; rate 0.0320 kg/ha) was 3.5, the “herbicidal rating, SAGPY” value ([18]; rate 0.1250 kg/ha) was 9.0 and the “herbicidal rating, ORYSAT (rice tolerance)” value (ORYSAT (Rice, Tebonnet) [19]; rate 0.0080 kg/ha) was 5.0. The “herbicidal rating, ORYSAT (rice tolerance)” value (ORYSAT (Rice, Tebonnet) [19]; rate 0.0320 kg/ha) was 7.5 and the “herbicidal rating, ORYSAT (rice tolerance)” value (ORYSAT (Rice, Tebonnet) [19]; rate 0.1250 kg/ha) was 9.0.
